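Where inhibition never reached the appropriate level, the endpoint shown equals the highest concentration tested. Otherwise, values were interpolated linearly from a five-concentration, 48-hour dose response in 96-well plates. Abbreviation: GI50, concentration required for 50% inhibition of growth. The concentration for full growth arrest is given as TGI.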 *1 amine or outer side, *2 acyl side, *3 side chain or, on linkers, in order; H or OH if unused. Where a SMILES comes first, the peptide text is derived from it. Bridges are numbered along the chain shown (N, C = ends). [ ]: non-standard residue; d: D form. The star is where a group is joined. Phe(3,5-F2) = N[C@@H](Cc1cc(F)cc(F)c1)C(=O)O; Pro(4R-Me) = C[C@H]1CN[C@H](C(=O)O)C1; aThr = C[C@H](O)[C@H](N)C(=O)O; Pip = O=C(O)[C@@H]1CCCCN1; X10 = Fc1cc(C2CC2)ccc1N*; CO = O=C([*:1])[*:2]
What was measured:
Assay in all cases: NCI anticancer screen, dose series, 48 h
EKVX NSCLC = system: EKVX NSCLC
HOP-92 NSCLC = system: HOP-92 NSCLC
HS 578T breast = system: HS 578T breast
NCI/ADR-RES ovarian = system: NCI/ADR-RES ovarian
OVCAR-8 ovarian = system: OVCAR-8 ovarian
SNB-19 CNS = system: SNB-19 CNS
UACC-62 melanoma = system: UACC-62 melanoma
UO-31 renal = system: UO-31 renal
LXFL 529 NSCLC = system: LXFL 529 NSCLC
XF 498 CNS = system: XF 498 CNS

| Structure (SMILES) | TGI (EKVX NSCLC) [µM] | TGI (HOP-92 NSCLC) [µM] | TGI (HS 578T breast) [µM] | TGI (NCI/ADR-RES ovarian) [µM] | TGI (OVCAR-8 ovarian) [µM] | TGI (SNB-19 CNS) [µM] | TGI (UACC-62 melanoma) [µM] | TGI (UO-31 renal) [µM] | GI50 (EKVX NSCLC) [nM] | GI50 (HOP-92 NSCLC) [nM] | GI50 (HS 578T breast) [nM] | GI50 (NCI/ADR-RES ovarian) [nM] | GI50 (OVCAR-8 ovarian) [nM] | GI50 (SNB-19 CNS) [nM] | GI50 (UACC-62 melanoma) [nM] | GI50 (UO-31 renal) [nM] | TGI (LXFL 529 NSCLC) [µM] | TGI (XF 498 CNS) [µM] |
| --- | --- | --- | --- | --- | --- | --- | --- | --- | --- | --- | --- | --- | --- | --- | --- | --- | --- | --- |
| Cc1ccsc1C(=S)Nc1ccc(Cl)c(/C=N/OC(C)(C)C)c1 | > 100 | 48.8 | > 100 | > 100 | > 100 | > 100 | > 100 | > 100 |  |  |  |  |  |  |  |  |  |  |
| C[C@@H]1C[C@H]2C(=O)O[C@@H](C)[C@H](NC(=O)[C@H](Cc3cc(F)cc(F)c3)NC(=O)Nc3ccc(C4CC4)cc3F)C(=O)N3CCC[C@H]3C(=O)N3CCCC[C@H]3C(=O)N[C@@H](C)C(=O)N2C1 ({X10-CO}-[Phe(3,5-F2)][aThr]P[Pip]A[Pro(4R-Me)]; ester 2-C) | > 95.6 | 4.76 | 3.94 | 45.6 | > 100 | > 46.9 | 4.37 | 7.61 | 61.3 | 45.2 | 40.9 | 354 | 38.3 | 40.4 | 51.2 | 161 |  |  |
| CNC(=S)OCCC(C)CCCC(C)C (stereo unspecified) | 31.7 |  |  |  | 31.5 | 33.4 | 29.1 | 20.7 |  |  |  |  |  |  |  |  | 30.4 | 31.1 |
| CC(C)=CCC\C(C)=C/C=C/C(C)=C\C=C\C(C)=C/C=C/C=C(C)\C=C\C=C(C)/C=C/C=C(/C)CCC=C(C)C | > 100 | > 100 | > 100 | > 100 | > 100 | > 100 | > 100 | > 100 |  |  |  |  |  |  |  |  |  |  |
| COc1cc(/C=N\NC(=O)CN2CCN(c3cc4c(cc3F)c(=O)c(C(=O)N/N=C/c3cc(OC)c(OC)c(OC)c3)cn4C3CC3)CC2)cc(OC)c1OC | > 100 | 0.674 |  | > 100 | > 88.5 | > 100 | 0.583 | > 100 |  | 198 | 308 | > 100000 | 577 | 445 | 231 | > 100000 |  |  |
| CCN1/C(=C\c2cc[n+](CC)c3ccccc23)C=Cc2ccccc21 | 12.1 | 0.937 | 15.8 | 46.2 | 13 | 11.7 | 1.27 | 8.1 | 76.4 | 161 | 330 | 13800 | 230 | 163 | 179 | 1890 |  |  |
| COC(=O)C1(C(C)C)CCc2c(OC)ccc(OC)c2C1=O (stereo unspecified) | > 100 |  |  |  | > 100 | > 100 | > 100 | > 100 |  |  |  |  |  |  |  |  | > 100 | > 100 |
| Nc1ccccc1S(=O)(=O)N(CC(=O)O)c1ccccc1 | > 100 | > 100 |  |  | > 100 | > 100 | > 100 | > 100 |  |  |  |  |  |  |  |  | > 100 | > 100 |
| O=C(CCc1nc(=S)[nH][nH]1)Nc1ccc(Cl)c(Cl)c1 | > 100 | > 100 |  |  | > 100 | > 100 | 22 | > 100 |  |  |  |  |  |  |  |  | > 100 | > 100 |
| COC(=O)c1ccccc1NC(=O)C(=O)Cc1nc2c3c(ccc2[nH]c1=O)C(=O)c1ccccc1C3=O | 82.1 | 92.9 |  |  | > 100 | > 100 | 20.4 | > 100 |  |  |  |  |  |  |  |  | > 100 | 91.7 |
| Fc1ccc(NC(=S)SCc2ccc3c(c2)OCO3)cc1F | 34.1 | 88.9 | 88.7 | 75.7 | 35.9 | 39.3 | 27.3 | 37.9 |  |  |  |  |  |  |  |  |  |  |
| O=C1/C(=C/c2ccc(O)c(O)c2)CCC/C1=C\c1ccc(O)c(O)c1 | 32.4 | 13.2 | > 39.9 | 23.8 | 4.42 | 29.1 | 30.2 | 4.34 |  |  |  |  |  |  |  |  |  | 9.93 |
| CCN1CCN(Cc2ccc(NC(=O)c3cccc(C#Cc4cccc5[nH]nc(N)c45)c3)cc2C(F)(F)F)CC1 | 2.73 | 1.89 | 3.19 | 5.21 | 1.53 | 2.3 | 1.77 | 1.28 | 1410 | 350 | 518 | 1590 | 395 | 1070 | 509 | 299 |  |  |
| CCN(CC)N=Nc1c(C(N)=O)n[nH]c1C | > 100 | 87.8 | > 100 | > 100 | > 100 | > 100 | > 100 | > 100 |  |  |  |  |  |  |  |  |  |  |
| CCOC1Oc2ccccc2C(=O)/C1=C/Nc1ccc(C(C)=O)cc1 (stereo unspecified) | 93.6 | > 100 | 52 | 38.6 | 45 | > 100 | 42 | > 100 | 25400 | 25600 | 17900 | 15600 | 16300 | 42200 | 17500 | 27900 |  |  |
| Cc1ccnc2c1ccc1c(C)ccnc12 | 12.7 | 16.1 | > 100 | 1.79 | 14.1 | 13.9 | 1.03 | 2.91 | 389 | 656 | 3950 | 204 | 397 | 592 | 288 | 246 |  |  |
| NC1=NCCC1(c1ccccc1)c1ccccn1 (stereo unspecified) | > 100 | > 100 |  |  | > 100 | > 100 | > 100 |  |  |  |  |  |  |  |  |  | > 100 | > 100 |
| COC(=O)/C=C1\S/C(=N\NC(=O)c2cc3ccc2/C=C\c2ccc(cc2)/C=C\3)N(c2ccccc2)C1=O | 4.23 | 9.14 | > 100 | 10.6 | > 100 | 4.25 | 4.21 | 3.08 | 1910 | 1910 | 3490 | 2920 | 3080 | 1950 | 1960 | 1530 |  |  |
